Measurements taken from patent publication US8791141B2, “Organic compounds” (Novartis AG, priority 2008, dated 2014).

Tests used:
[1] = target: T1, CYP11B1 (steroid 11-hydroxylase) (Homo sapiens, UniProt P15538); assay: Inhibition of cortisol secretion in NCI-H295R cells; type: cell-based; conditions: human adrenocortical carcinoma NCI-H295R cells, 24 hours with cell stimulant
T1 construct: the NCI-H295R cells have CYP11B2 (aldosterone synthase) and CYP11B1 (steroid 11-hydroxylase); host or cells: NCI-H295R
T1 sequence (P15538 25-503): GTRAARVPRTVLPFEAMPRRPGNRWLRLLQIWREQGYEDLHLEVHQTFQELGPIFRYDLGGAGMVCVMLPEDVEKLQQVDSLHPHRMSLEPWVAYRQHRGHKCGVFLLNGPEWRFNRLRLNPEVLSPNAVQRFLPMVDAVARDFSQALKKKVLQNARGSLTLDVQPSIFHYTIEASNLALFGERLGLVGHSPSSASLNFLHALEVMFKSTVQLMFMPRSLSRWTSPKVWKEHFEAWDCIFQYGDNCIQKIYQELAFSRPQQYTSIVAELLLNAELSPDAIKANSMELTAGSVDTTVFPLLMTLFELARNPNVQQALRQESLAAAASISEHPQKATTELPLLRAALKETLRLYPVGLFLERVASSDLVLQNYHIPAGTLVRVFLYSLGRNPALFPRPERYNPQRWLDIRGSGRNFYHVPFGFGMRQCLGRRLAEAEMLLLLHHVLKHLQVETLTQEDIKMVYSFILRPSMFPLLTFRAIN
From the text: (§1) The activities of a compound according to the present invention can be assessed by the following in vitro method well-described in the art.
(§2) In particular, the inhibition of aldosterone and cortisol secretion in vitro can be determined by the following assay.
(§3) The cell line NCI-H295R was originally isolated from an adrenocortical carcinoma and has been characterized in the literature through the stimulable secretion of steroid hormones and the presence of the enzymes essential for steroidogenesis. The cells show the physiological property of zonally undifferentiated human foetal adrenocortical cells which, however, have the capacity to produce the steroid hormones which are formed in the three phenotypically distinguishable zones in the adult adrenal cortex. Thus, the NCI-H295R cells have CYP11B2 (aldosterone synthase) and CYP11B1 (steroid 11-hydroxylase).
(§4) The human adrenocortical carcinoma NCI-H295R cell line is obtained from American Type Culture Collection (Manassas, Va.). Insulin/transferrin/selenium (ITS)-A supplement (100×), DMEM/F-12, antibiotic/antimycotic (100×), and fetal calf serum (FCS) are purchased from Invitrogen (Carlsbad, Calif.). Anti-mouse PVT scintillation proximity assay (SPA) beads and NBS 96-well plates are obtained from Amersham (Piscataway, N.J.) and Corning (Acton, Mass.), respectively. Clear bottom 96-well flat bottom plates are purchased from Costar (Corning, N.Y.). Aldosterone and angiotensin (Ang II) are purchased from Sigma (St. Louis, Mo.). D[1,2,6,7-3H(N)]aldosterone and [1,2,6,7-3H(N)]cortisol are acquired from PerkinElmer (Boston, Mass.). Nu-serum is a product of BD Biosciences (Franklin Lakes, N.J.).
(§5) For in vitro measurement of aldosterone and cortisol activity, human adrenocortical carcinoma NCI-H295R cells are seeded in NBS 96-well plates at a density of 25,000 cells/well in 100 μL of a growth medium containing DMEM/F12 supplemented with 10% FCS, 2.5% Nu-serum, 1 μg ITS/ml, and 1× antibiotic/antimycotic. The medium is changed after culturing for 3 days at 37° C. under an atmosphere of 5% CO2/95% air. On the following day, cells are rinsed with 100 μL of DMEM/F12 and incubated in quadruplicate wells at 37° C. for 24 hours with 100 μL of treatment medium containing a cell stimulant and a compound at different concentrations. […] Cell stimulants which can be used are angiotensin-II (1 micromolar), potassium ions (16 millimolar), forskolin (10 micromolar) or a combination of two stimulants. At the end of incubation, the excretion of aldosterone and cortisol into the culture medium can be detected and quantified by commercially available, specific monoclonal antibodies in radioimmunoassays in accordance with the manufacturer's instructions.
(§6) Measurement of aldosterone can also be performed using a 96-well plate format. Each test sample is incubated with 0.02 μCi of D[1,2,6,7-3H(N)]aldosterone and 0.3 μg of anti-aldosterone antibody in phosphate-buffered saline (PBS) containing 0.1% Triton X-100, 0.1% bovine serum albumin, and 12% glycerol in a total volume of 200 μL at room temperature for 1 hour. Anti-mouse PVT SPA beads (50 μL) are then added to each well and incubated overnight at room temperature prior to counting in a Microbeta plate counter. The amount of aldosterone in each sample is calculated by comparing with a standard curve generated using known quantities of the hormone. Measurement of cortisol can be performed in a manner similar to that of aldosterone, except that [1,2,6,7-3H(N)]cortisol is used.
(§7) Inhibition of the release of a steroid can be used as a measure of the respective enzyme inhibition by the added test compounds. The dose-dependent inhibition of enzymatic activity by a compound is calculated by means of an inhibition plot which is characterized by an IC50. […] The inhibition plot is calculated by fitting a 4-parameter logistic function to the raw data points using the least squares method.

[2] = target: T2, CYP11B2 (aldosterone synthase) (Homo sapiens, UniProt P19099); assay: Inhibition of aldosterone secretion in NCI-H295R cells; type: cell-based; conditions: human adrenocortical carcinoma NCI-H295R cells, 24 hours with cell stimulant
T2 construct: the NCI-H295R cells have CYP11B2 (aldosterone synthase) and CYP11B1 (steroid 11-hydroxylase); host or cells: NCI-H295R
T2 sequence (P19099 25-503): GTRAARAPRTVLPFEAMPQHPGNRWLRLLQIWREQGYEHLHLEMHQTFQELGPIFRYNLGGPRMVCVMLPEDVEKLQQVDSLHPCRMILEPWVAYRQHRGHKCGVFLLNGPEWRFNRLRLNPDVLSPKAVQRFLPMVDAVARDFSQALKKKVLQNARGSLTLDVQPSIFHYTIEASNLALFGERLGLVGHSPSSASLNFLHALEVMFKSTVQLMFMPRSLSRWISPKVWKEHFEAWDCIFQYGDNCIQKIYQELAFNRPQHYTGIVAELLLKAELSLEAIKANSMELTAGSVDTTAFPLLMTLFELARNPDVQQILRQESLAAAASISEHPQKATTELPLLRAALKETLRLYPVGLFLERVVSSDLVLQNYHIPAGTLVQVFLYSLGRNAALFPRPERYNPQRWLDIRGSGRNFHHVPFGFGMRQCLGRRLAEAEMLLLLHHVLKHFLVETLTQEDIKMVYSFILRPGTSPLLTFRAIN
From the text: as §1, §2, §3, §4, §5, §6, §7

IC50 [1]: > 1000 nM | IC50 [2]: 23 nM
SMILES: CCNS(=O)(=O)c1cncc(-c2cc3ccccc3n2C)c1 [Example 242, N-ethyl-5-(1-methyl-1H-indol-2-yl)pyridine-3-sulfonamide]
